This data set deals with T1, Human CYP8B1 (Homo sapiens, UniProt Q9UNU6).
T1 construct: tissue Xenotech; host or cells: human liver microsomes
T1 sequence (Q9UNU6 1-501): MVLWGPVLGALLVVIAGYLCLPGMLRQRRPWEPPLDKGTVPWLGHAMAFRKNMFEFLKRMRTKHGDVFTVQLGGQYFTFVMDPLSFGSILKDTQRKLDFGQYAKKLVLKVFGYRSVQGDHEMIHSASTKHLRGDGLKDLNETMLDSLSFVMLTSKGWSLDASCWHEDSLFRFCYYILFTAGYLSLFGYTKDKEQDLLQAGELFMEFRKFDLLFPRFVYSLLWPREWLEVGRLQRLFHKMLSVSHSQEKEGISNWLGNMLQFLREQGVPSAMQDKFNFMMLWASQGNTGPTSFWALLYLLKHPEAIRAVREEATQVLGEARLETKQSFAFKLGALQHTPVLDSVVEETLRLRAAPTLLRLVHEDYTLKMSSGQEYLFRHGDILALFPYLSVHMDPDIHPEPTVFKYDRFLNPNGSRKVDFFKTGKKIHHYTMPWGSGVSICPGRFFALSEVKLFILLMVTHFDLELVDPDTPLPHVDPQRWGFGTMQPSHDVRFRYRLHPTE
Description: Human Cyp8B1 Liver Microsome Assay. The format is biochemical. To be noted: human liver microsomes; substrate 7α-hydroxy-4-cholesten-3-one, NADPH; 30 min pre-incubation, 45 min reaction; RapidFire MS readout. As for the experimental part:
Human Cyp8B1 Liver Microsome Assay To a 384 well polypropylene plate (Corning 3656), 250 nl of inhibitor in 100% DMSO (1.25% final DMSO concentration) was pre-plated using an Echo liquid handler (Labcyte Inc.). Human liver microsomes (Xenotech) were diluted in of 0.1 M phosphate buffer, pH 7.4, at a concentration of 65 μg/ml and 15 μL was added to the 384 well plate. The plates were incubated at ambient room temperature for 30 minutes. After pre-incubation with inhibitor, the reaction was initiated by adding 5 μl of substrate solution (4.0 μM 7α-hydroxy-4-cholesten-3-one(Toronto Research Chemicals), 2 mM of NADPH (Sigma), 0.1 M phosphate buffer (pH 7.4). The reaction was carried out for 45 minutes at ambient room temperature and was quenched by the addition of 50 μl of acetonitrile+0.1% vol/vol formic acid (FA)+300 nM 7α-hydroxy-4-cholesten-3-one-d7 (Toronto Research Chemicals). The plates were sealed and centrifuged at 3000 rpm for 5 minutes. Plates were loaded onto the Agilent RapidFire RF300 HTMS system, wherein samples were sipped for 600 ms, and the sip sensor detection signals the diversion of sample from the loop onto a C4 solid phase extraction (SPE) cartridge, where salts are washed off for 2500 ms with a mobile phase of water with 0.1% vol/vol FA at a flow rate of 1.5 ml/min. The column path is switched, and the sample is eluted off the cartridge and flowed into the mass spectrometer for 3000 ms with a mobile phase of acetonitrile and 0.1% vol/vol FA at a flow rate of 1.25 ml/min. The aspirator tip was washed separately with water and acetonitrile between sample aspirations (each for 600 ms) to minimize carryover contamination. Mass spectrometry was carried out using a Sciex API4000 triple quadrupole mass spectrometer (Applied Biosystems, Concord, ON, Canada) equipped with electrospray ionization (ESI) operated in the positive-ion mode. The product 7α, 12α-dihydroxy-4-cholesten-3-one and internal standard 7α-hydroxy-4-cholsten-3-one-d7 were detected using multiple reaction monitoring (MRM) with Q1/Q3 transitions at m/z 417.3 to 381.3 and m/z 408.3 to 390.3, respectively, with a dwell time of 100 ms and a collision energy of 24 V for each transition. The mass spectrometer used an ESI voltage of 5000 V and a source temperature of 650° C. Extracted ion chromatograms for each transition were integrated and processed using the RapidFire Integrator software. The data for each well were normalized by monitoring product conversion with the ratio of AUCproduct/(AUCinternal standard). The data was then fitted to a four parameter logistic fit using ActivityBase Software to calculate an IC50 of the inhibitor.

The IC50 is the concentration that gives 50% inhibition. Consider `C[C@@H]1CN(c2c(C(N)=O)cnc3cc(OCC4CC4)ccc23)CC[C@@H]1C(=O)N1CCn2c(nnc2C(F)(F)F)C1` [Example 39, 7-(cyclopropylmethoxy)-4-[(3S,4S)-3-methyl-4-{[3-(trifluoromethyl)-5,6-dihydro[1,2,4]triazolo[4,3-a]pyrazin-7(8H)-yl]carbonyl}piperidin-1-yl]quinoline-3-carboxamide], for which the IC50 turned out to be 5290 pM. This counts as single-digit nanomolar. Molecule `C[C@@H]1CN(c2c(Cl)c[n+]([O-])c3cc(C(F)(F)F)ccc23)CC[C@@H]1C(=O)N1CCn2c(nnc2C(F)(F)F)C1` [Example 40, {(3S,4S)-1-[3-chloro-1-oxido-7-(trifluoromethyl)quinolin-4-yl]-3-methylpiperidin-4-yl}[3-(trifluoromethyl)-5,6-dihydro[1,2,4]triazolo[4,3-a]pyrazin-7(8H)-yl]methanone] came in with an IC50 of 800 pM.

`COc1ccc2c(N3CC[C@H](C(=O)N4CCn5c(nnc5C(F)(F)F)C4)[C@H](C)C3)c(Cl)cnc2c1F` [Example 41, [(3S,4S)-1-(3-chloro-8-fluoro-7-methoxyquinolin-4-yl)-3-methylpiperidin-4-yl][3-(trifluoromethyl)-5,6-dihydro[1,2,4]triazolo[4,3-a]pyrazin-7(8H)-yl]methanone] yielded an IC50 of 380 pM. With `C[C@@H]1CN(c2c(Cl)cnc3cc(Br)ccc23)CC[C@@H]1C(=O)N1CCn2c(nnc2C(F)(F)F)C1` [Example 42, [(3S,4S)-1-(7-bromo-3-chloroquinolin-4-yl)-3-methylpiperidin-4-yl][3-(trifluoromethyl)-5,6-dihydro[1,2,4]triazolo[4,3-a]pyrazin-7(81)-yl]methanone], inhibition was half-maximal at 440 pM (IC50). With `CC(=O)c1ccc2c(N3CC[C@H](C(=O)N4CCn5c(nnc5C(F)(F)F)C4)[C@H](C)C3)c(Cl)cnc2c1` [Example 43, 1-{3-chloro-4-[(3S,4S)-3-methyl-4-{[3-(trifluoromethyl)-5,6-dihydro[1,2,4]triazolo[4,3-a]pyrazin-7(8H)-yl]carbonyl}piperidin-1-yl]quinolin-7-yl}ethanone], the IC50 is 280 pM. This IC50 lies about 1.6-fold lower than the previous one. With `C[C@@H]1CN(c2c(F)cnc3cc(C(F)(F)F)ccc23)CC[C@@H]1C(=O)N1CCn2c(nnc2C(F)(F)F)C1` [Example 45, {(3S,4S)-1-[3-fluoro-7-(trifluoromethyl)quinolin-4-yl]-3-methylpiperidin-4-yl}[3-(trifluoromethyl)-5,6-dihydro[1,2,4]triazolo[4,3-a]pyrazin-7(8H)-yl]methanone] the figure was 250 pM. On to `C[C@@H]1CN(c2ccnc3cc(C(C)(F)F)ccc23)CC[C@@H]1C(=O)N1CCn2c(nnc2C(F)(F)F)C1` [Example 46, {(3S,4S)-1-[7-(1,1-difluoroethyl)quinolin-4-yl]-3-methylpiperidin-4-yl}[3-(trifluoromethyl)-5,6-dihydro[1,2,4]triazolo[4,3-a]pyrazin-7(8H)-yl]methanone], for which the IC50 is 1100 pM. Then `C[C@@H]1CN(c2c(F)cnc3cc(C(C)(F)F)ccc23)CC[C@@H]1C(=O)N1CCn2c(nnc2C(F)(F)F)C1` [Example 47, {(3S,4S)-1-[7-(1,1-difluoroethyl)-3-fluoroquinolin-4-yl]-3-methylpiperidin-4-yl}[3-(trifluoromethyl)-5,6-dihydro[1,2,4]triazolo[4,3-a]pyrazin-7(8H)-yl]methanone], with 570 pM; and `C[C@@H]1CN(c2c(F)cnc3cc(Cl)ccc23)CC[C@@H]1C(=O)N1CCn2c(nnc2C(F)(F)F)C1` [Example 48, [(3S,4S)-1-(7-chloro-3-fluoroquinolin-4-yl)-3-methylpiperidin-4-yl][3-(trifluoromethyl)-5,6-dihydro[1,2,4]triazolo[4,3-a]pyrazin-7(8H)-yl]methanone], with 1700 pM; and `C[C@@H]1CN(c2c(Cl)cnc3cc(C(C)(F)F)ccc23)CC[C@@H]1C(=O)N1CCn2c(nnc2C(F)(F)F)C1` [Example 49, {(3S,4S)-1-[3-chloro-7-(1,1-difluoroethyl)quinolin-4-yl]-3-methylpiperidin-4-yl}[3-(trifluoromethyl)-5,6-dihydro[1,2,4]triazolo[4,3-a]pyrazin-7(8H)-yl]methanone], with 460 pM. `C[C@@H]1CN(c2c(Cl)cnc3cc(C4CC4)ccc23)CC[C@@H]1C(=O)N1CCn2c(nnc2C(F)(F)F)C1` [Example 50, [(3S,4S)-1-(3-chloro-7-cyclopropyl-quinolin-4-yl)-3-methylpiperidin-4-yl][3-(trifluoromethyl)-5,6-dihydro[1,2,4]triazolo[4,3-a]pyrazin-7(8H) - yl]methanone] returned an IC50 of 250 pM. This IC50 is about 1.8-fold lower than that of the molecule before. Then `C[C@@H]1CN(c2c(Cl)cnc3cc(OCC4CC4)ccc23)CC[C@@H]1C(=O)N1CCn2c(nnc2C(F)(F)F)C1` [Example 51], with 220 pM; and `Cc1cnc2cc(C(C)(F)F)ccc2c1N1CC[C@H](C(=O)N2CCn3c(nnc3C(F)(F)F)C2)[C@H](C)C1` [Example 52, {(3S,4S)-1-[7-(1,1-difluoroethyl)-3-methylquinolin-4-yl]-3-methylpiperidin-4-yl}[3-(trifluoromethyl)-5,6-dihydro[1,2,4]triazolo[4,3-a]pyrazin-7(8H)-yl]methanone], with 310 pM. With `C[C@@H]1CN(c2ccnc3cc(OCC4CC4)ccc23)CC[C@@H]1C(=O)N1CCn2c(nnc2C(F)(F)F)C1` [Example 53, {(3S,4S)-1-[7-(cyclopropylmethoxy)quinolin-4-yl]-3-methylpiperidin-4-yl}[3-(trifluoromethyl)-5,6-dihydro[1,2,4]triazolo[4,3-a]pyrazin-7(8H)-yl]methanone] the figure was 3600 pM.

On to `C[C@@H]1CN(c2c(C(F)F)cnc3cc(C4CC4)ccc23)CC[C@@H]1C(=O)N1CCn2c(nnc2C(F)(F)F)C1` [Example 54, {(3S,4S)-1-[7-cyclopropyl-3-(difluoromethyl)quinolin-4-yl]-3-methylpiperidin-4-yl}[3-(trifluoromethyl)-5,6-dihydro[1,2,4]triazolo[4,3-a]pyrazin-7(81H)-yl]methanone], for which the IC50 is 610 pM. With `C[C@@H]1CN(c2c(Cl)cnc3cc(C(F)(F)F)ccc23)CC[C@@H]1C(=O)N1CCn2c(nnc2C(F)(F)F)C1` [Example 55, ((3S,4S)-1-(3-chloro-7-(trifluoromethyl)quinolin-4-yl)-3-methylpiperidin-4-yl)(3-(trifluoromethyl)-5,6-dihydro-[1,2,4]triazolo[4,3-a]pyrazin-7(8H)-yl)methanone] the figure was 200 pM. Take `C[C@@H]1CN(c2c(F)cnc3cc(C(F)F)ccc23)CC[C@@H]1C(=O)N1CCn2c(nnc2C(F)(F)F)C1` [Example 56, ((3S,4S)-1-(7-(difluoromethyl)-3-fluoroquinolin-4-yl)-3-methylpiperidin-4-yl)(3-(trifluoromethyl)-5,6-dihydro-[1,2,4]triazolo[4,3-a]pyrazin-7(8H)-yl)methanone]: inhibition was half-maximal at 460 pM (IC50). Compared with the last molecule, the IC50 is about 2.3-fold higher. In turn, `C[C@@H]1CC(c2c(Cl)cnc3cc(C(F)F)ccc23)CCN1C(=O)N1CCn2c(nnc2C(F)(F)F)C1` (stereo partly drawn) [Example 57, ((2R)-4-(3-chloro-7-(difluoromethyl)quinolin-4-yl)-2-methylpiperidin-1-yl)(3-(trifluoromethyl)-5,6-dihydro-[1,2,4]triazolo [4,3-a]pyrazin-7(8H)-yl)methanone] had a 50% inhibitory concentration (IC50) of 320 pM. The IC50 values of the last two molecules are within 1.5-fold of each other. With `C[C@@H]1CN(c2ccnc3cc(C(F)F)ccc23)CC[C@@H]1C(=O)N1CCn2c(nnc2C(F)(F)F)C1` [Example 58, ((3S,4S)-1-(7-(difluoromethyl)quinolin-4-yl)-3-methylpiperidin-4-yl)(3-(trifluoromethyl)-5,6-dihydro-[1,2,4]triazolo[4,3-a]pyrazin-7(8H)-yl)methanone] the figure was 5970 pM.
